Assay results taken from ChEMBL document CHEMBL2424622, “Development of amino-pyrimidine inhibitors of c-Jun N-terminal kinase (JNK): kinase profiling guided optimization of a 1,2,3-benzotriazole lead” (Bioorg Med Chem Lett, 2013).

Legend:
[1] = tested on: Tyrosine-protein kinase ABL1 (Homo sapiens), P00519 [Q252H]; assay: Competitive binding affinity to ABL1 Q252H mutant (unknown origin) at 10 uM in presence of ATP relative to control
[2] = molecular target: T1, Serine/threonine-protein kinase RIO1 (Homo sapiens) (UniProt Q9BRS2); assay: Competitive binding affinity to RIOK1 (unknown origin) at 10 uM in presence of ATP relative to control
T1 sequence (whole entry): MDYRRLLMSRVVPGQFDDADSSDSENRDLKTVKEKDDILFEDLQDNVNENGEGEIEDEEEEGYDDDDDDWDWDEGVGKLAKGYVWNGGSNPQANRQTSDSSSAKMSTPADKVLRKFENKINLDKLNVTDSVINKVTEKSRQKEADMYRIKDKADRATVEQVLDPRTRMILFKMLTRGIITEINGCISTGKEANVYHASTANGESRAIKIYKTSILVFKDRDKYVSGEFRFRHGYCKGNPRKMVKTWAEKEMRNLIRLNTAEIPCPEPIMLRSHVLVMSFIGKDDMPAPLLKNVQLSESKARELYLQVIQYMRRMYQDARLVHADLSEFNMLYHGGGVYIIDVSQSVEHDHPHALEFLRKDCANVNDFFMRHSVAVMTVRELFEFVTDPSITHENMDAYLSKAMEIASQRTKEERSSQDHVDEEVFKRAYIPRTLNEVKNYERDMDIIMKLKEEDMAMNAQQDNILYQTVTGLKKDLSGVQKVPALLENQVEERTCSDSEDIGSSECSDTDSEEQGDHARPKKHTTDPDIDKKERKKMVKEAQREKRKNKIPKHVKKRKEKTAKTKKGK

[3] = molecular target: T2, Serine/threonine-protein kinase BRSK1 (Homo sapiens) (UniProt Q8TDC3); assay: Competitive binding affinity to BRSK1 (unknown origin) at 10 uM in presence of ATP relative to control
T2 sequence (whole entry): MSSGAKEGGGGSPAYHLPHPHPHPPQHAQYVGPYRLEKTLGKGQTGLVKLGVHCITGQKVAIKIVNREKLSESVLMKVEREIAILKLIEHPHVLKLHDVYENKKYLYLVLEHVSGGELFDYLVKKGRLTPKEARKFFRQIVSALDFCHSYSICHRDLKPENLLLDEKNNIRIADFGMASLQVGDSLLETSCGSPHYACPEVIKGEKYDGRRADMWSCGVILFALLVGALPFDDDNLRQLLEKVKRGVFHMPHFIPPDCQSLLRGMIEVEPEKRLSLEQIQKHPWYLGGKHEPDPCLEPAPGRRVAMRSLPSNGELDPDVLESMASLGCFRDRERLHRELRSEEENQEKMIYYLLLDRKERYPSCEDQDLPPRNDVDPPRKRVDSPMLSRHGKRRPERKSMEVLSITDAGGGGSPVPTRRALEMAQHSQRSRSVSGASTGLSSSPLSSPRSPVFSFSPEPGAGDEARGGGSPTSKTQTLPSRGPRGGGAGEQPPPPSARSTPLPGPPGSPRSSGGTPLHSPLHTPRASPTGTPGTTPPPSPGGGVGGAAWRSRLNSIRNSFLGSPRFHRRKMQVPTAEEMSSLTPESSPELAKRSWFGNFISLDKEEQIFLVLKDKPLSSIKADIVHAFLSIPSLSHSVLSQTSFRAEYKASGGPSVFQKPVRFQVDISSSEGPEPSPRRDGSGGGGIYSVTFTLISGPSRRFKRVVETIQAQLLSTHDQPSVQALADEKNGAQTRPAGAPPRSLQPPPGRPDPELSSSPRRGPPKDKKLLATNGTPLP

[4] = tested on: T3, Receptor-type tyrosine-protein kinase FLT3 (Homo sapiens), P36888 [N841I]; assay: Competitive binding affinity to FLT3 N841I mutant (unknown origin) at 10 uM in presence of ATP relative to control
T3 sequence (whole entry): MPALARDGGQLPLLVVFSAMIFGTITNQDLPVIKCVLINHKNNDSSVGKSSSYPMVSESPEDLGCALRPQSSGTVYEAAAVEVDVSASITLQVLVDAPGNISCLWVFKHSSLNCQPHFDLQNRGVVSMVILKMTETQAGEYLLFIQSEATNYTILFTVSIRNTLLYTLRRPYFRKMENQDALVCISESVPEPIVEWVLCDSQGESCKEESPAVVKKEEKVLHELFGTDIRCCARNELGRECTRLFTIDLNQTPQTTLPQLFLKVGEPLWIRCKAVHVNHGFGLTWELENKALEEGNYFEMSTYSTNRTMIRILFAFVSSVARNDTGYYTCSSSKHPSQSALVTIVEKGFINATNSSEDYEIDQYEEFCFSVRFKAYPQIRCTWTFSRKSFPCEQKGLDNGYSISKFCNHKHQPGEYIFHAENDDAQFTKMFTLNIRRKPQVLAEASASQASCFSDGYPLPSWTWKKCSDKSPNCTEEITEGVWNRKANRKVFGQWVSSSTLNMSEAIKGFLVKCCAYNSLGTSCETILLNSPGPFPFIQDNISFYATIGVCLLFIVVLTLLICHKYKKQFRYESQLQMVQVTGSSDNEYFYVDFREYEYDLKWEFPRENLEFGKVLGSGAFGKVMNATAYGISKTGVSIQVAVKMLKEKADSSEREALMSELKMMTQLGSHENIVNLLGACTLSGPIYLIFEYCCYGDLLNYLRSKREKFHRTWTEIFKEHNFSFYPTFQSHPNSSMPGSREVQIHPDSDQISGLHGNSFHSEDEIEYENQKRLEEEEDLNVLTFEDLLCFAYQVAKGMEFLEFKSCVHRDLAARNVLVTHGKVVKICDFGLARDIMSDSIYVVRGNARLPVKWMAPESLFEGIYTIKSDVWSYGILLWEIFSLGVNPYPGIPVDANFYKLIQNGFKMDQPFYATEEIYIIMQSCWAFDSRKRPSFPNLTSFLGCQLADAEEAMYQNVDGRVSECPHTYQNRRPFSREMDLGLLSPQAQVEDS

[5] = molecular target: Serine/threonine-protein kinase Nek7 (Homo sapiens, UniProt Q8TDX7); assay: Competitive binding affinity to NEK7 (unknown origin) at 10 uM in presence of ATP relative to control
Sequence of Serine/threonine-protein kinase Nek7 (Q8TDX7 whole entry, looked up): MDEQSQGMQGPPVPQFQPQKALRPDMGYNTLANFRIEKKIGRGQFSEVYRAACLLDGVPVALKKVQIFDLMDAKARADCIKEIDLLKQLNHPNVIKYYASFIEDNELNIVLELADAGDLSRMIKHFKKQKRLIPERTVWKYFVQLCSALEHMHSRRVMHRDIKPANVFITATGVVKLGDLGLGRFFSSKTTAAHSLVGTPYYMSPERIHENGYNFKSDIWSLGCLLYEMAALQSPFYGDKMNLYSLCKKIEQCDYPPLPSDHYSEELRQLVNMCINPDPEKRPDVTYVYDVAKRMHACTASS

Row | Structure (SMILES) | inhibition [1] [%] | inhibition [2] [%] | inhibition [3] [%] | inhibition [4] [%] | inhibition [5] [%]
1 | O[C@H]1CC[C@H](Nc2nccc(-n3ncc4ccccc43)n2)CC1 | < 50 | < 50 | < 50 | 97 | < 50
2 | O[C@H]1CC[C@H](Nc2nccc(-c3n[nH]c4ccccc34)n2)CC1 | < 50 | – | – | 100 | –
3 | O[C@H]1CC[C@H](Nc2nccc(-n3nnc4ccccc43)n2)CC1 | 74 | < 50 | < 50 | 98 | 93

The remaining lines, values ahead:

Row | inhibition [1] [%] | inhibition [2] [%] | inhibition [3] [%] | inhibition [4] [%] | inhibition [5] [%] | Structure (SMILES)
4 | < 50 | < 50 | < 50 | < 50 | < 50 | O[C@H]1CC[C@H](Nc2nccc(-n3ccc4ccccc43)n2)CC1
5 | – | – | – | – | > 85 | CS(=O)(=O)CCCOc1cccc2c1ccn2-c1ccnc(N[C@H]2CC[C@H](C(=O)N3CCC(O)CC3)CC2)n1
